From patent publication US20050080139A1, “Naaladase inhibitors for treating huntington's disease” (priority 2001, published 2005)

Tests used:
[1] = tested on: Transgenic HD mice of the N171-82Q strain; assay: Rotarod behavioral testing in transgenic mouse model of Huntington's disease; format: in vivo; conditions: transgenic HD mice N171-82Q, 30 mg/kg from 10 weeks of age, vs vehicle
Method: Transgenic HD mice of the […]-[…] strain and non-transgenic littermates were treated with NAALADase inhibitor Compound B (30 mg/kg) or a vehicle from 10 weeks of age. The mice were placed on a rotating rod (“rotarod”). The length of time at which the mouse fell off the rotarod was recorded as a measure of motor coordination. […] The treatment with Compound B had no effect on the rotarod performance of normal non-HD mice.

[2] = tested on: Transgenic HD mice of the N171-82Q strain; assay: Total distance traveled (overall locomotion) in HD mice; format: in vivo; conditions: 30 mg/kg from 10 weeks of age, vs vehicle
Method: Transgenic HD mice of the […]-[…] strain and non-transgenic littermates were treated with NAALADase inhibitor Compound B (30 mg/kg) or a vehicle from 10 weeks of age. The mice were placed on a rotating rod (“rotarod”). The length of time at which the mouse fell off the rotarod was recorded as a measure of motor coordination. […] The treatment with Compound B had no effect on the rotarod performance of normal non-HD mice. The total distance traveled by the mice was also recorded as a measure of overall locomotion.

[3] = tested on: transgenic HD mice (N171-82Q); assay: Survival of transgenic HD mice; format: in vivo
Method: The effects of Compound B and vehicle on the survival of transgenic HD mice (N171-82Q) were evaluated. Thirteen mice (six male and seven female) were assigned to the Compound B treatment group, and fourteen mice (six male and eight female) were assigned to the vehicle treatment group. Treatment was continued until all the mice died.

NAALADase = NAALADase (Homo sapiens, UniProt Q04609); conditions: NAAG as substrate of NAALADase; cited from earlier work
Sequence of NAALADase (Q04609 whole entry): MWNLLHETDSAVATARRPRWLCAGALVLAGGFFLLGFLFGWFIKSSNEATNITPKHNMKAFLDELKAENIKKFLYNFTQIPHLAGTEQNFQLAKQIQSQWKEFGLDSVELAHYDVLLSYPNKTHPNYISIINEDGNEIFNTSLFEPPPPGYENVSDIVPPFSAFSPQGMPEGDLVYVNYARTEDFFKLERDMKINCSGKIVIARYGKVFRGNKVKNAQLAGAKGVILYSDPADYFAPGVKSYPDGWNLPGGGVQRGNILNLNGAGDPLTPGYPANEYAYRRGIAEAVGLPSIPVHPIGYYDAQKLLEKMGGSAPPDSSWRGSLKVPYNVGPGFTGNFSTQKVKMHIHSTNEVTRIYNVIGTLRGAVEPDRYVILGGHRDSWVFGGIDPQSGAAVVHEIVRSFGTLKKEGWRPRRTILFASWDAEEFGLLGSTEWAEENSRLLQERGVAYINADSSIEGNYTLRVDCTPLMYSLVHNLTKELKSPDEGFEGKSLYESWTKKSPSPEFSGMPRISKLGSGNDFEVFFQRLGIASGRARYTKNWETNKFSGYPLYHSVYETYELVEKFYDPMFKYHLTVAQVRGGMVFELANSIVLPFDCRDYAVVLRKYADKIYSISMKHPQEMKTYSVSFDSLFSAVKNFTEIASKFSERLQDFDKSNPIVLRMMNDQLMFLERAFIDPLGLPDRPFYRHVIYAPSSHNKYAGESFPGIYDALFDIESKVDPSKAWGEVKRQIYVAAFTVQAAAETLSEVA

| Molecule | rotarod performance (length of time on the rotarod, motor coordination) [1] | total distance traveled (overall locomotion) [2] | survival time vs vehicle ([3]; female transgenic HD mice, p-value 0.03) | survival time vs vehicle ([3]; transgenic HD mice N171-82Q, both sexes, difference in median survival time) | median survival time ([3]; transgenic HD mice N171-82Q, both sexes, vehicle 158.5 days, p-value=0.07) [days] | Km (NAALADase) [nM] |
| --- | --- | --- | --- | --- | --- | --- |
| O=C(O)CCC(CCCS)C(=O)O (stereo not drawn) [Compound B, 2-(3-sulfanylpropyl)-pentanedioic acid] | stayed longer on the rotarod | no apparent effect on overall locomotion | significantly prolonged survival time | not statistically significant | 184 | – |
| N-acetyl-aspartyl-glutamate [NAAG] | – | – | – | – | – | 540 |
